# Several values for one entry are separate records, joined by “and”; a condition that tells them apart may be missing. Identical values can stand only once.
# Assays:
# [1] = target: T1, PSMA (Homo sapiens, UniProt Q04609); assay: Competition binding assay, LNCaP cell homogenates, radioligand [177Lu]Lu-PSMA-617; settings: nonlabeled compounds; [177Lu]Lu-PSMA-617 12 nM; 37 °C, 60 min; Table 2 mean (SEM), Table S3 individual experiments and mean
# T1 construct: Detection of endogenous PSMA expression in LNCaP and PC3 cells relative to β-actin expression by Western; host or cells: LNCaP human prostate carcinoma cells (monolayer, spheroids or Potter-Elvehjem homogenates)
# T1 sequence (Q04609 whole entry): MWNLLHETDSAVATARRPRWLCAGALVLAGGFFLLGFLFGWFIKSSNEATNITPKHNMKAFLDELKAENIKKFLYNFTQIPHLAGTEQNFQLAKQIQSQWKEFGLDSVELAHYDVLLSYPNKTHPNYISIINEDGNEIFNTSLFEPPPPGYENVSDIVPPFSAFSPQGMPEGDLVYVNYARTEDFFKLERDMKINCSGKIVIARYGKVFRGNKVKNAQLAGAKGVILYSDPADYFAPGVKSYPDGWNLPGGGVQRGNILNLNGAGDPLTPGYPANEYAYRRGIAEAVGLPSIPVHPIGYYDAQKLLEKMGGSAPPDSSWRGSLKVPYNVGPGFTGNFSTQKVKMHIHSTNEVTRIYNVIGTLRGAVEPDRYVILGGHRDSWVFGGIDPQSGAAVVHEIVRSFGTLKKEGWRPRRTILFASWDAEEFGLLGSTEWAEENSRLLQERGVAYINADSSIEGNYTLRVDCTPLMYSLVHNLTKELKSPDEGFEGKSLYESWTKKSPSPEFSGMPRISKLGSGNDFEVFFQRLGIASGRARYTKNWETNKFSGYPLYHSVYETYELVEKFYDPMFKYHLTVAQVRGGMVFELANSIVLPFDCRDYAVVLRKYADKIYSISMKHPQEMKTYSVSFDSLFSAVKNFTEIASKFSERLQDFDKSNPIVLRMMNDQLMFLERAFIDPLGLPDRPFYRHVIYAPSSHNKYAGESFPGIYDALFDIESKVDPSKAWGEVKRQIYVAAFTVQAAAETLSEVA
# Method: The binding affinity of the nonlabeled CHDT-PSMA-1/2/3, PSMA-1007, PSMA-617, and KuE was assessed in competition binding assays using LNCaP cell homogenates (∼1 × 10^6 cells/mL using Potter-Elvehjem) and the radioligand [^177Lu]Lu-PSMA-617 (n = 5 for CHDT-PSMA-1; n = 4 for CHDT-PSMA-2/3; n = 2 for PSMA-1007; n = 8 for PSMA-617; n = 6 for KuE). […] The assays were performed in a final volume of 200 μL. The incubation was stopped by washing the homogenate with cold PBS four times using a filter (Whatman GF/C, 90 min presoaked in 0.3% polyethylenimine) in a cell harvester (Brandel, USA). The radioactivity bound to the filter was measured in a gamma counter. Filter binding was determined for adjacent samples without cell homogenate. The experiments were performed two to four times in triplicates or quadruplicates. Inhibitory constants (Ki) were derived from nonlinear regression according to the model of “One site – Fit Ki” as implemented in GraphPad Prism 10. The Kd value of [^177Lu]Lu-PSMA-617 was determined in saturation binding assays using LNCaP cell homogenates to be 15.2 (±2.1) nM.
# [2] = target: T1, PSMA; assay: Saturation binding (surface-bound and internalized), intact LNCaP cells as monolayer
# Source text: (§1) In addition to assessing the binding affinities for nonlabeled CHDT-PSMA-1/2/3, we sought to characterize the saturation binding of the Al^18F-, ^68Ga-, and ^111In-labeled compounds using LNCaP cells cultured in monolayers and as spheroids. The saturation binding curves for Al[^18F]F-CHDT-PSMA-1/2/3 are depicted in Figure 3, while the graphs for [^18F]PSMA-1007 and ^68Ga- and ^111In-labeled CHDT-PSMA-1/2/3 can be found in Figures S7–S9 in the Supporting Information. The binding parameters (Kd and Bmax) for Al[^18F]F-CHDT-PSMA-1/2/3 and [^18F]PSMA-1007 are summarized in Table 3 (for the ^68Ga- and ^111In-labeled compounds see Tables S4 and S5 in the Supporting Information). For the saturation binding assays, we recorded surface-bound radioligand (named “binding”), which refers to bound radioligand that can be removed by acid wash, and internalized or acid-resistant radioligand (named “internalization”), which refers to radioligand that remains cell-bound after acid wash. Consequently, two saturation binding plots were obtained and two sets of binding parameters (Kd/Bmax and Kd,int/Bmax,int) were derived.
# (§2) For saturation assays in well plates, monolayers of LNCaP (sowing 5 × 10^4 cells/well in 48-well plates 2 days before the assay), as well as LNCaP spheroids were incubated with radiolabeled CHDT-PSMA-1/2/3 and PSMA-1007 (0.2 nM to 100 nM) with adjacent samples receiving KuE (0.8 mM) at 37 °C for 2 h. The number of experiments can be derived from the data in the Tables S4, S5, and S7 in the Supporting Information. After removing the incubation medium and washing of cells with ice-cold PBS (containing Mg^2+ and Ca^2+) the surface-bound activity was stripped with 4 °C cold acid-wash buffer (0.2 M glycine, 0.15 M NaCl, pH 3.0) for 10 min. The acid wash buffer was transferred from the wells to measuring tubes, as was the PBS buffer after washing once. Cytosolic activity (internalized radioligand) was determined after treatment with cell lysis buffer (1% SDS in 0.1 M NaOH) at 37 °C for 30 min. Cell surface and cytosolic activity were measured separately in a gamma counter. Time-depending internalization assays were performed only with cells in monolayer. The incubation (radioligand concentration 13 nM) for these assays was terminated after 10 min, 1 and 3 h, with ^111In and ^177Lu additionally after 24 and 48 h at 37 °C, respectively. During the internalization assays adjacent samples received KuE (0.8 mM) for PSMA blocking, methyl-β-cyclodextrin (MβCD; 3 mM) or KuE together with MβCD, 1 h before radioligand application. The number of experiments can be derived from the data of Figure S11 and associated table and from Table S8 in the Supporting Information.
# (§3) Dissociations constants (Kd and Kd,int), as well as maximal binding capacities (Bmax and Bmax,int), were derived from specific binding data by nonlinear regression according to the model of “One site-specific binding” as implemented in GraphPad Prism 10. Protein content was determined using the bicinchoninic acid protein assay kit (Pierce, Thermo Scientific) to calculate the binding capacities in pmol/mg and for the time-depending internalization the internalized percent of administrated dose per μg protein (% AD/μg protein).
# [3] = system: LNCaP tumor xenograft; assay: Small animal PET imaging, LNCaP tumor xenograft mouse model; assay type: in vivo, mice
# Method: All animal experiments were performed in accordance with the German Animal Welfare regulations and were approved by the local ethics committee for animal experiments (DD24.1-51-31/449/49, Oct 26, 2018). A PSMA-positive prostate cancer xenograft model was generated by subcutaneous injection of human LNCaP cells into the right shoulder of 8–12 week-old male nude mice (Rj:NMRI-Foxn1^nu/nu, Janvier Laboratories, Le Genest-Saint-Isle, France). Imaging studies were performed when subcutaneous tumors reached a diameter of at least 6 mm. General anesthesia of the animals was induced and maintained by inhalation of 10% (v/v) desflurane in 30/70% (v/v) oxygen/air. Animals were continuously warmed at 37 °C during anesthesia.
# Positron emission tomography (PET) was performed in vivo using the nanoScan PET/CT scanner (Mediso Medical Imaging Systems, Budapest, Hungary), especially suited for small animals. Each animal received 8–12 MBq of the reference compound [^18F]PSMA-1007 or the radioligands Al[^18F]F-CHDT-PSMA-1/2/3 in phosphate-buffered saline by intravenous injection via a tail vein catheter. At the time of injection, molar activities and radiochemical purities of the compounds were as follows: [^18F]PSMA-1007 (15 MBq/nmol, >99%); Al[^18F]F-CHDT-PSMA-1 (10 MBq/nmol, 99%); Al[^18F]F-CHDT-PSMA-2 (6.3 MBq/nmol, 98%); Al[^18F]F-CHDT-PSMA-3 (4.5 MBq/nmol, >99%). Specificity of target binding was assessed by blocking PSMA binding sites with 2-phosphonomethyl pentanedioic acid (2-PMPA), administered simultaneously with the radioligand at a dose of 50 mg/kg. With injection of the radioligand, emission of the annihilation photons was recorded continuously in coincidence mode of 1:5 for 120 min. A corresponding CT image was acquired with each PET scan and used for attenuation correction and anatomical referencing. From three-dimensional list mode data, events within the energy window of 400–600 keV were extracted and sorted into 36 time frames (f1–f36) with a sequence of 15 × 10 s, 5 × 30 s, 5 × 60 s, 4 × 300 s, 3 × 600 s, and 4 × 900 s. For each time frame, a PET image was reconstructed with the three-dimensional (3D) Tera-Tomo algorithm, with a voxel size of 0.4 mm, applying corrections for random events, scattering, attenuation, and decay.
# Three-dimensional regions of interest (ROIs) were defined within an image series of selected time frames using fixed intensity thresholds for delineation of organs: bones at knee joint position (0–120 min, 55%), cardiac blood volume (0–1.7 min, 70%), gall bladder (0–120 min, 39%), intestine (0–120 min, 5%), kidneys (0–2.5 min, 15%), liver (0–2.5 min, 55%), muscle (0–120 min, 0%), parotid glands (0–120 min, 39%), tumor (0–120 min, 39%), and urinary bladder (0–120 min, 5%). Activity concentrations in tissue were determined as standardized uptake value (SUV = [MBq detected activity/mL tissue]/[MBq injected activity/g body weight]) and expressed as SUVmean (ROI-averaged). Time-activity curves were generated and analyzed using Prism (GraphPad Software, San Diego CA, USA). […] Areas under curves (AUC) were calculated using the trapezoid rule. Statistical significance of mean differences was tested by analysis of variance (ANOVA) using the Šidák test.
# [4] = target: T1, PSMA; assay: Time-depending internalization assay, LNCaP cells as monolayer; assay type: cell-based; settings: individual experiments; for specific internalization in the presence of MβCD: MβCD 3 mM; for specific internalization: radioligand 13 nM
# Method: as §2, §3
# [5] = target: T1, PSMA; assay: Saturation binding (surface-bound and internalized), LNCaP spheroids
# Source text: as §1
# For the formation of spheroids, the LNCaP cells were incubated overnight in a normal culture bottle with biocompatible nanoparticles ([…] with 80 μL of a suspension consisting of Au, Fe2O3 and poly-L-lysine called Nanoshuttle, Greiner Bio-One GmbH, Germany). After harvesting and cell counting, 10,000 cells/well of a 24-well plate or 7,000 cells/well of a 96-well plate (cell-repellent plates) were sown. The well plates were placed on matching plates with button magnets (Greiner Bio-One GmbH, Germany). The magnetized LNCaP cells formed suitable spheroids that were used after 5 d.
# as §2, §3
# [6] = SUVmean ratio 105–120 min after injection, mean ± SD
# [7] = Al^18F-labeled conjugate or [18F]PSMA-1007, surface-bound
# [8] = Al^18F-labeled conjugate or [18F]PSMA-1007, acid-resistant fraction, read-out: Kd,int (internalization)
compound,measurement,setting,value
O=C(O)CC[C@H](NC(=O)N[C@@H](CCCCNC(=O)[C@H](Cc1ccc2ccccc2c1)NC(=O)[C@H]1CC[C@H](CNC(=O)CN2CCN(CC(=O)O)CCN(CC(=O)O)CCN(CC(=O)O)CC2)CC1)C(=O)O)C(=O)O [PSMA-617],Ki,[1],4.1 nM and 2.59 nM and 5.55 nM and 5.49 nM and 4.57 nM and 3.33 nM and 4.02 nM and 3.71 nM and 4.2 nM
O=C(O)CC[C@H](NC(=O)N[C@@H](CCCCNC(=O)[C@H](Cc1ccc2ccccc2c1)NC(=O)c1ccc(CNC(=O)[C@H](CCC(=O)O)NC(=O)[C@H](CCC(=O)O)NC(=O)c2ccc(F)nc2)cc1)C(=O)O)C(=O)O [[^18F]PSMA-1007],Kd,"[2]; Al^18F-labeled conjugate or [18F]PSMA-1007, surface-bound, 37 °C, 2 h, read-out: Kd (binding)",5.4 nM
O=C(O)CC[C@H](NC(=O)N[C@@H](CCCCNC(=O)[C@H](Cc1ccc2ccccc2c1)NC(=O)c1ccc(CNC(=O)[C@H](CCC(=O)O)NC(=O)[C@H](CCC(=O)O)NC(=O)c2ccc([18F])nc2)cc1)C(=O)O)C(=O)O [[^18F]PSMA-1007],average SUVmean in bone tissue,[3]; 120 min p.i.,0.21
same,Tu/Blood,[3]; [6],14 ± 3.0
same,Tu/Bone,[3]; [6],18 ± 7.9
same,Tu/Kidney,[3]; [6],0.5 ± 0.2
same,Tu/Liver,[3]; [6],16 ± 6.8
same,Tu/Muscle,[3]; [6],20 ± 6.9
same,Bmax (binding),[2]; [7],1.11 pmol/mg
same,specific internalization in the presence of MβCD,[4]; 10 min,0.02232 % AD/µg protein and 0.008008 % AD/µg protein
same,specific internalization,[4]; 10 min,0.03696 % AD/µg protein and 0.02616 % AD/µg protein
same,specific internalization in the presence of MβCD,[4]; 1 h,0.1091 % AD/µg protein and 0.02833 % AD/µg protein and 0.1038 % AD/µg protein
same,specific internalization,[4]; 1 h,0.07765 % AD/µg protein and 0.1071 % AD/µg protein and 0.1171 % AD/µg protein
same,specific internalization in the presence of MβCD,[4]; 3 h,0.04566 % AD/µg protein and 0.1478 % AD/µg protein and 0.1495 % AD/µg protein
same,specific internalization,[4]; 3 h,0.2295 % AD/µg protein and 0.1701 % AD/µg protein and 0.1562 % AD/µg protein
PSMA-1007 [reference compound],"Bmax,int (internalization)","[2]; Al^18F-labeled conjugate or [18F]PSMA-1007, acid-resistant fraction",1.02 ± 0.21 pmol/mg
same,Kd,[2]; [8],10.1 ± 5.9 nM
same,Bmax (binding),[2]; [7],1.11 ± 0.06 pmol/mg
same,Ki,[1],2 nM and 1.39 nM and 1.7 nM
same,Kd,[5]; [8],25.8 ± 18.6 nM
same,Kd,"[5]; Al^18F-labeled conjugate or [18F]PSMA-1007, surface-bound, read-out: Kd (binding)",12.9 ± 1.2 nM

# Reference: publication PMC11417994, “Cyclohexanediamine Triazole (CHDT) Functionalization Enables Labeling of Target Molecules with Al^18F/^68Ga/^111In” (Bioconjugate Chemistry, 2024)
